PubChem BioAssay AID1963845 (Molecular Pharmacology Branch, DTP, NCI, 2024)

System: 429239-143-T-J1-PDC complex spheroid viability
Assay: Anticancer human tumor 429239-143-T-J1-PDC patient-derived small cell lung carcinoma cell line growth inhibition [POLQ]
Conditions: for IC50: curve of first compound; for viability, T/C: stronger effect = lower value
Outline: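 Three-cell-type spheroids modelling solid tumor plus stroma served as the readout system; POL inhibitors were tested individually and in combination, concentration ranges set by clinical Cmax where known.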
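Also: luminescence signal used as surrogate measure of viable cells; spheroids exposed to compounds for seven days before readout.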
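For viability, T/C in this document: 100% = DMSO vehicle control viability as luminescence relative to vehicle.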

Compound: COc1cc2cc(C(=O)CCC(=O)O)sc2cc1OC + Nc1ccc(C#CCN(C(=O)Cc2ncc(C(F)(F)F)cc2C(F)(F)F)c2ccc(F)cc2)nn1
- IC50 (second compound 0.0316 µM): > 10 µM
- IC50 (second compound 0.1 µM): > 10 µM
- IC50 (second compound 0.316 µM): > 10 µM
- IC50 (second compound 1 µM): > 10 µM
- IC50 (second compound 3.16 µM): > 10 µM
- IC50 (second compound 10 µM): > 10 µM
- viability, T/C (second compound 0.0316 µM, first compound 0.0316 µM): 90.4%
- viability, T/C (second compound 0.0316 µM, first compound 0.1 µM): 108%
- viability, T/C (second compound 0.0316 µM, first compound 0.316 µM): 89.8%
- viability, T/C (second compound 0.0316 µM, first compound 1 µM): 107%
- viability, T/C (second compound 0.0316 µM, first compound 3.16 µM): 106%
- viability, T/C (second compound 0.0316 µM, first compound 10 µM): 119%
- viability, T/C (second compound 0.1 µM, first compound 0.0316 µM): 106%
- viability, T/C (second compound 0.1 µM, first compound 0.1 µM): 113%
- viability, T/C (second compound 0.1 µM, first compound 0.316 µM): 101%
- viability, T/C (second compound 0.1 µM, first compound 1 µM): 106%
- viability, T/C (second compound 0.1 µM, first compound 3.16 µM): 103%
- viability, T/C (second compound 0.1 µM, first compound 10 µM): 97.4%
- viability, T/C (second compound 0.316 µM, first compound 0.0316 µM): 105%
- viability, T/C (second compound 0.316 µM, first compound 0.1 µM): 109%
- viability, T/C (second compound 0.316 µM, first compound 0.316 µM): 96.8%
- viability, T/C (second compound 0.316 µM, first compound 1 µM): 117%
- viability, T/C (second compound 0.316 µM, first compound 3.16 µM): 95.4%
- viability, T/C (second compound 0.316 µM, first compound 10 µM): 101%
- viability, T/C (second compound 1 µM, first compound 0.0316 µM): 105%
- viability, T/C (second compound 1 µM, first compound 0.1 µM): 106%
- viability, T/C (second compound 1 µM, first compound 0.316 µM): 94.8%
- viability, T/C (second compound 1 µM, first compound 1 µM): 97.9%
- viability, T/C (second compound 1 µM, first compound 3.16 µM): 100%
- viability, T/C (second compound 1 µM, first compound 10 µM): 105%
- viability, T/C (second compound 3.16 µM, first compound 0.0316 µM): 97%
- viability, T/C (second compound 3.16 µM, first compound 0.1 µM): 107%
- viability, T/C (second compound 3.16 µM, first compound 0.316 µM): 103%
- viability, T/C (second compound 3.16 µM, first compound 1 µM): 104%
- viability, T/C (second compound 3.16 µM, first compound 3.16 µM): 94.9%
- viability, T/C (second compound 3.16 µM, first compound 10 µM): 99.8%
- viability, T/C (second compound 10 µM, first compound 0.0316 µM): 96.9%
- viability, T/C (second compound 10 µM, first compound 0.1 µM): 105%
- viability, T/C (second compound 10 µM, first compound 0.316 µM): 108%
- viability, T/C (second compound 10 µM, first compound 1 µM): 98.2%
- viability, T/C (second compound 10 µM, first compound 3.16 µM): 99.9%
- viability, T/C (second compound 10 µM, first compound 10 µM): 98.3%
